Test results: patent US7439351B2, “2′ or 3′ -deoxy and 2′, 3′-dideoxy-β-L-pentofuranonucleo-side compounds, method of preparation and application in therapy, especially as anti-viral agents” (The UAB Research Foundation, priority 1993, dated 2008)
Entries after “also recorded” stand apart in the source; their conditions may differ.

Assays:
[1] = test system: noninfected PBM cells; experiment: Toxic effect on noninfected cells (formazan formation), PBM; details: at least 50% inhibition of formazan formation, 5 days
Procedure: (§1) The toxic effect on the noninfected cells is assessed by calorimetric reaction based on the capacity of live cells to reduce 3-(4,5-dimethylthiozol-2-yl)-2,5-diphenyltetrazolium bromide to formazan after incubating for 5 days in the presence of various concentrations of the compounds.

[2] = test system: noninfected CEM-SS cells; experiment: Toxic effect on noninfected cells (formazan formation), CEM-SS; details: at least 50% inhibition of formazan formation, 5 days
Procedure: as §1

[3] = test system: noninfected PBMC; experiment: Toxic effect on noninfected cells (formazan formation), PBMC; details: at least 50% inhibition of formazan formation, 5 days
Procedure: as §1

[4] = test system: HIV; details: CEM cell culture; Mansuri et al. 1991; read-out: IC50 against HIV; cited from earlier work
[5] = test system: HIV; details: prior art reports; listed as β-L-DDC; cited from earlier work
[6] = test system: herpes simplex viruses (HSV); details: cell cultures; Spadari et al. 1992; cited from earlier work

Structure (SMILES) | CD50 [1] | CD50 [2] | CD50 [3] | IC50 [4] [nM] | activity against HIV (in words) [5] | antiviral activity against HSV (in words) [6]
Cc1cn([C@H]2C[C@H](N=[N+]=[N-])[C@@H](CO)O2)c(=O)[nH]c1=O [AZT, reference compound] | 7e-05 M | >10^−4 M | 8e-05 M | – | – | –
Nc1ccn([C@@H]2CC[C@H](CO)O2)c(=O)n1 [Compound 21a, 2′,3′-dideoxy-β-L-cytidine] | 10^−4 M | 8.3e-05 M | 10^−4 M | 660 | relatively limited antiviral activity; also recorded: no activity against HIV | –
Nc1nc(=O)n([C@@H]2CC[C@H](CO)O2)cc1F [Compound 21b, 2′,3′-dideoxy-β-L-5-fluorocytidine] | 10^−4 M | 9e-05 M | 10^−4 M | – | – | –
Nc1ccn([C@H]2CC[C@@H](CO)O2)c(=O)n1 [DDC, reference compound] | 7e-05 M | 6e-05 M | 2.5e-05 M | – | – | –
Cc1cn([C@@H]2C[C@@H](O)[C@H](CO)O2)c(=O)[nH]c1=O [β-L-Thymidine] | – | – | – | – | – | relatively limited antiviral activity
